The results in this text go back to BindingDB's records for doi:10.1021/jm300377g (University of Lille, 2012).

pEC50: −log10 of the molar value.

A short description of this experiment: Inhibition of EthR in Mycobacterium tuberculosis H37Rv-GFP infected in mouse Raw 264.7 cells assessed as compound concentration allowing 0.1 uM ethionamide to inhibit 50% microbial growth by automated fluorescent confocal microscopy.
Regarding `COc1cccc(SCC(=O)Nc2ccc(-c3nc4ccccc4s3)cc2)c1`, the pEC50 is less than 5.00.

With `COc1cccc(OCC(=O)Nc2ccc(Cl)cc2)c1`, the pEC50 is 5.80.

On to `Cc1ccc2cc(NC(=O)COc3ccccc3F)ccc2n1`, for which the pEC50 was 5.66.

For `N#Cc1cccc(OCC(=O)Nc2ccc(-c3nc4ccccc4s3)cc2)c1`, the pEC50 was 6.47.

Regarding `COc1cccc(OCC(=O)Nc2ccc(-c3nc4ccccc4s3)cc2)c1`, the pEC50 is 6.68.

With `Cc1ccc(-n2nc3ccc(NC(=O)COc4ccccc4C)cc3n2)cc1`, the pEC50 is less than 5.00.

In general, pEC50 refers to the negative decadic logarithm of the EC50, by convention in mol/L.
